Experimental data taken from US10597388B2, “Pyridazinone herbicides” (FMC CORPORATION, priority 2014, dated 2020).

Tests used:
Assay in all cases: Test C greenhouse herbicide test, pre- and postemergence
Format in all cases: in vivo
[1] = tested on: ragweed (common ragweed, Ambrosia elatior)
In short: (§1)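 Visual ratings on a 0 to 100 scale (0 = no effect, 100 = complete control) versus untreated controls, scored 13–15 d after treatment. Soil-applied preemergence to seeded loam/sand; foliar postemergence to 1- to 4-leaf plants (2–18 cm) in peat-vermiculite mix; compounds formulated in solvent plus surfactant.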

[2] = tested on: wheat (winter wheat, Triticum aestivum)
In short: as §1

[3] = tested on: oilseed rape (Brassica napus)
In short: as §1

[4] = tested on: galium (catchweed bedstraw, Galium aparine)
In short: as §1

[5] = tested on: lambsquarters (Chenopodium album)
In short: as §1

[6] = tested on: johnsongrass (Sorghum halepense)
In short: as §1

[7] = tested on: crabgrass, large (large crabgrass, Digitaria sanguinalis)
In short: as §1

soybean (Glycine max) = tested on: soybean (Glycine max)
In short: as §1

[8] = tested on: nutsedge, yellow (yellow nutsedge, Cyperus esculentus)
In short: as §1

[9] = tested on: barnyardgrass (Echinochloa crus-galli)
In short: as §1

[10] = tested on: waterhemp (common waterhemp, Amaranthus rudis)
In short: as §1

[11] = tested on: foxtail, giant (giant foxtail, Setaria faberii)
In short: as §1

[12] = Postemergence, 31 g ai/ha, 0 to 100 scale (0 no effect, 100 complete control)
[13] = Postemergence, 125 g ai/ha, scale 0 to 100, 0 is no effect, 100 is complete control
[14] = Postemergence, 250 g ai/ha, scale 0 to 100, 0 no effect, 100 complete control, 13 to 15 d
[15] = Preemergence, 31 g ai/ha, scale 0 to 100, 0 is no effect, 100 is complete control
[16] = Preemergence, 62 g ai/ha, scale 0 to 100, 0 is no effect, 100 is complete control
[17] = Preemergence, 125 g ai/ha, scale 0 to 100, 0 is no effect, 100 is complete control
[18] = Preemergence, 250 g ai/ha, scale 0 to 100, 0 no effect, 100 complete control
[19] = postemergence, 62 g ai/ha, scale 0 to 100, 0 no effect, 100 complete control

Compound: Cc1ccc2sc(Br)c(-c3c(O)c(C)nn(C)c3=O)c2c1 [Compound 79]
- Ragweed plant response rating [1, 12]: 90
- Plant response rating, Ragweed [1, 13]: 98
- Plant response rating, Ragweed [1, 14]: 98
- Plant response rating, Ragweed [1, 15]: 90
- Plant response rating, Ragweed [1, 16]: 95
- Plant response rating, Ragweed [1, 17]: 98
- Ragweed plant response rating [1, 18]: 100
- Ragweed plant response rating [1, 19]: 95
- Wheat plant response rating [2, 12]: 0
- Plant response rating, Wheat [2, 13]: 0
- Plant response rating, Wheat [2, 14]: 0
- Plant response rating, Wheat [2, 15]: 0
- Plant response rating, Wheat [2, 16]: 0
- Plant response rating, Wheat [2, 17]: 0
- Wheat plant response rating [2, 18]: 0
- Wheat plant response rating [2, 19]: 0
- Oilseed Rape plant response rating [3, 12]: 20
- Plant response rating, Oilseed Rape [3, 13]: 70
- Plant response rating, Oilseed Rape [3, 14]: 80
- Plant response rating, Oilseed Rape [3, 15]: 0
- Plant response rating, Oilseed Rape [3, 16]: 35
- Plant response rating, Oilseed Rape [3, 17]: 30
- Oilseed Rape plant response rating [3, 18]: 30
- Oilseed Rape plant response rating [3, 19]: 25
- Galium plant response rating [4, 12]: 95
- Plant response rating, Galium [4, 13]: 95
- Plant response rating, Galium [4, 14]: 95
- Plant response rating, Galium [4, 15]: 95
- Plant response rating, Galium [4, 16]: 95
- Plant response rating, Galium [4, 17]: 95
- Galium plant response rating [4, 18]: 98
- Galium plant response rating [4, 19]: 95
- Lambsquarters plant response rating [5, 12]: 85
- Plant response rating, Lambsquarters [5, 13]: 98
- Plant response rating, Lambsquarters [5, 14]: 100
- Plant response rating, Lambsquarters [5, 15]: 100
- Plant response rating, Lambsquarters [5, 16]: 95
- Plant response rating, Lambsquarters [5, 17]: 100
- Lambsquarters plant response rating [5, 18]: 100
- Lambsquarters plant response rating [5, 19]: 95
- Johnsongrass plant response rating [6, 12]: 5
- Plant response rating, Johnsongrass [6, 13]: 10
- Plant response rating, Johnsongrass [6, 14]: 10
- Plant response rating, Johnsongrass [6, 15]: 10
- Plant response rating, Johnsongrass [6, 16]: 35
- Plant response rating, Johnsongrass [6, 17]: 40
- Johnsongrass plant response rating [6, 18]: 30
- Johnsongrass plant response rating [6, 19]: 5
- Crabgrass, Large plant response rating [7, 12]: 20
- Plant response rating, Crabgrass, Large [7, 13]: 30
- Plant response rating, Crabgrass, Large [7, 14]: 35
- Plant response rating, Crabgrass, Large [7, 15]: 25
- Plant response rating, Crabgrass, Large [7, 16]: 25
- Plant response rating, Crabgrass, Large [7, 17]: 20
- Crabgrass, Large plant response rating [7, 18]: 30
- Crabgrass, Large plant response rating [7, 19]: 25
- Soybean plant response rating (soybean (Glycine max); [12]): 0
- Plant response rating, Soybean (soybean (Glycine max); [13]): 5
- Plant response rating, Soybean (soybean (Glycine max); [14]): 5
- Plant response rating, Soybean (soybean (Glycine max); [15]): 0
- Plant response rating, Soybean (soybean (Glycine max); [16]): 0
- Plant response rating, Soybean (soybean (Glycine max); [17]): 5
- Soybean plant response rating (soybean (Glycine max); [18]): 0
- Soybean plant response rating (soybean (Glycine max); [19]): 0
- Nutsedge, Yellow plant response rating [8, 12]: 85
- Plant response rating, Nutsedge, Yellow [8, 13]: 80
- Plant response rating, Nutsedge, Yellow [8, 14]: 85
- Plant response rating, Nutsedge, Yellow [8, 15]: 25
- Plant response rating, Nutsedge, Yellow [8, 16]: 45
- Plant response rating, Nutsedge, Yellow [8, 17]: 90
- Nutsedge, Yellow plant response rating [8, 18]: 90
- Nutsedge, Yellow plant response rating [8, 19]: 80
- Barnyardgrass plant response rating [9, 12]: 20
- Plant response rating, Barnyardgrass [9, 13]: 30
- Plant response rating, Barnyardgrass [9, 14]: 40
- Plant response rating, Barnyardgrass [9, 15]: 10
- Plant response rating, Barnyardgrass [9, 16]: 15
- Plant response rating, Barnyardgrass [9, 17]: 65
- Barnyardgrass plant response rating [9, 18]: 85
- Barnyardgrass plant response rating [9, 19]: 25
- Waterhemp plant response rating [10, 12]: 85
- Plant response rating, Waterhemp [10, 13]: 80
- Plant response rating, Waterhemp [10, 14]: 95
- Plant response rating, Waterhemp [10, 15]: 100
- Plant response rating, Waterhemp [10, 16]: 100
- Plant response rating, Waterhemp [10, 17]: 100
- Waterhemp plant response rating [10, 18]: 100
- Waterhemp plant response rating [10, 19]: 90
- Foxtail, Giant plant response rating [11, 12]: 35
- Plant response rating, Foxtail, Giant [11, 13]: 75
- Plant response rating, Foxtail, Giant [11, 14]: 90
- Plant response rating, Foxtail, Giant [11, 15]: 65
- Plant response rating, Foxtail, Giant [11, 16]: 85
- Plant response rating, Foxtail, Giant [11, 17]: 85
- Foxtail, Giant plant response rating [11, 18]: 95
- Foxtail, Giant plant response rating [11, 19]: 60
